Measurements: US20100130619A1, “PHARMACEUTICAL COMPOSITION FOR PARENTERAL ADMINISTRATION OF IDEBENONE” (priority 2008, published 2010)

How the values were obtained:
[1] = tested on: microsomal lipid peroxidation; conditions: cited from earlier work
[2] = tested on: cultured cortical neurons; conditions: cited from earlier work
[3] = oral; cited from earlier work
[4] = tested on: cerebrovascular disease; conditions: nine patients, 90 mg daily; cited from earlier work
[5] = tested on: Friedreich's Ataxia; conditions: cited from earlier work
[6] = Solubility of Idebenone; type: physicochemical
Excerpt: The low water solubility of Idebenone makes the task of producing an injectable form very difficult. Use of water miscible solvents (alcohol, propylene glycol, liquid PEG, N-methylpyrrolidone, etc.), where Idebenone dissolves well, is inappropriate due to the immediate precipitation of the drug upon contact with physiological fluids or a water phase. An inclusion complex of Idebenone with cyclodextrin has been described, but it is water dispersible, not soluble and not suitable for injection. The solubility of Idebenone in fixed oils (soy, corn, almond, etc.) is low; drug precipitates from such emulsions during storage, limiting their use for the preparation of injectable forms of […].

[7] = tested on: learning and memory disturbances; conditions: rats; cited from earlier work

## COC1=C(OC)C(=O)C(CCCCCCCCCCO)=C(C)C1=O [Idebenone, 2,3-dimethoxy-5-methyl-6-(10-hydroxydecyl)-1,4-benzoquinone]
[1]; cell cultures
  free radical scavenging: scavenges a variety of free radical species
[1]; induced by ADP-iron complexes or organic hydroperoxides
  microsomal lipid peroxidation: inhibits microsomal lipid peroxidation
[2]; applied 30 minutes after the NMDA pulse
  rescue on delayed application: rescues cortical neurons
[2]; cultured cortical neurons
  protection against necrotic degeneration: protects cultured cortical neurons against necrotic degeneration
[3]
  bioavailability: relatively high
[4]
  EEG and clinical symptoms: improvements in EEG and clinical symptoms
[5]; oral 5 mg/kg daily for 8 weeks
  marker of oxidative DNA damage: significantly decreased
[5]; three patients, 5 mg/kg daily for 4-9 months
  left ventricular enlargement: reduction of left ventricular enlargement
[6]; fixed oils (soy, corn, almond, etc.)
  solubility in fixed oils: low
[6]; water
  water solubility: low
[7]
  learning and memory disturbances: ameliorates learning and memory disturbances
